Experiments:
[1] = system: P. falciparum HB3 (MRA-155); assay: SYBR Green I growth inhibition assay, HB3; assay type: cell-based, Plasmodium falciparum; conditions: early-ring stage, 72 h exposure
Experimental: Fig. 1. […] (B) SYBR Green–based dose response assays were conducted on early-ring stage parasites (6 hours after invasion). […] 3D7 WT (blue), NF54 (green), drug-resistant strains Dd2 (red), HB3 (black), W2 (gray), and D10-ACP-GFP (purple) lines (Sigmoidal, 4PL, X is concentration, n ≥ 3, nonlinear regression, CI: 95%). (C) Schematic diagram of the development of P. falciparum after two consecutive erythrocytic cycles. The time points at which MED6-189 was introduced are depicted in green. HPS, hours post synchronization. […] The images depict various developmental stages of the parasite’s intraerythrocytic life cycle. Bordered images represent time points when drug was first introduced (n = 3 biological replicates, P < 0.05).
Detailed information on materials and methods is available in the supplementary materials. […] P. knowlesi assays were quantitatively measured by flow cytometry using SYBR Green I and Mitrotracker Deep Red, as previously described ([84], [85]), on a Beckman Coulter CytoFLEX. […]
(§1) P. falciparum in vitro SYBR green fluorescence-based assays The anti-malarial activity of individual analogues were evaluated in-vitro against P. falciparum 3D7 (MRA-102, drug […]
(§2) green-I based fluorescence assay. Parasite growth rate and stages of development were determined via microscopy through Giemsa-stained smears of the cultures. […]

[2] = system: P. falciparum 3D7 Clone / 3D7 Parental; assay: SYBR Green dose response, cloned 3D7 control/parental lines of the resistance selection; assay type: cell-based, Plasmodium falciparum
Description: (§3) To assess whether we could use the DMSO melting curves previously established for […] by Dziekan et al. ([49]), we calculated the difference in melting temperatures (ΔTm) between our DMSO dataset and Dziekan’s for 364 proteins for which Tm values were confidently calculated by mineCETSA (table S6).
(§4) Fig. 4. […] (C) Schematic representation of the CRISPR-Cas9–based replacement strategy used to introduce a deletion of the targeted repeat regions in the PfSec13 gene. The insertion was achieved through overlap extension polymerase chain reaction (PCR) of fragments directly upstream and downstream of the target segment and subsequently formed by primer overlap extension PCR to replicate the desired deletion. […] (D) Predicted structure of the SEC13 protein highlighting the seven amino acid tandem repeat regions targeted for deletion (red). […] Data were analyzed using a Sigmoidal, 4PL (X represents concentration, n = 3, nonlinear regression, CI: 95%).
as §1
green-I based fluorescence assay. Parasite growth rate and stages of development were determined via microscopy through Giemsa-stained smears of the cultures. Serial dilutions of the compounds ranging from 10uM-0.5nM were prepared in 96-well plates (Corning, Costar 3904) followed by […]
hematocrit added to each well. Eight wells were treated with vehicle control (DMSO) as control.
Plates were incubated in a modular incubation chamber (Billups-Rothenberg, Del Mar, CA)

[3] = system: 3D7 Clone-Kalihinol Treated (MED6-189 resistant line); assay: SYBR Green dose response, MED6-189-selected resistant line; assay type: cell-based, Plasmodium falciparum; conditions: resistant line after ~36 months of drug pressure
Description: as §3, §4, §1, §2

P. falciparum cultures = assay: Exponential killing rate at IC80; assay type: cell-based, Plasmodium falciparum; conditions: triplicate
[4] = system: P. falciparum Pf3D70087/N9; assay: In vivo efficacy, standard 4-day test in humanized mouse model of P. falciparum malaria; design: species or system NSG mice engrafted with human erythrocytes; conditions: 50 mg/kg orally, once a day for 4 days, from day 3 after infection; by the seventh day
Description: NOD scid gamma (NSG) mice were intravenously engrafted with human red blood cells (hRBCs) daily until the percentage of hRBCs reached ~50%, at which point the mice were infected with 2 × 10^7 P. falciparum–infected erythrocytes.
Peripheral blood from P. falciparum–infected mice was stained with TER-119-phycoerythrin (marker of murine erythrocytes) and SYTO-16 (nucleic acid dye) and then analyzed by flow cytometry (FACSCalibur, BD).
Plasmodium falciparum-infected erythrocytes (P. falciparum Pf3D70087/N9).
The mice were obtained from Charles River Labs, bred specifically for
research and certified pathogen free.
NSG mice were engrafted daily with human red blood cells intravenously injected in a final
volume of 0.7 ml (50% hematocrit). Mice were engrafted during two weeks prior to P. falciparum
infection, mice achieve around 60% of human red blood cells in mice peripheral blood.
P. falciparum infections were performed by intravenous inoculation. All mice were randomly
assigned to their corresponding treatment.
mg/kg per day for four consecutive days. […] In all cases, parasitemia was assessed in samples from peripheral blood obtained at days 3, 4, 5, 6, and 7 after infection. Fresh samples of peripheral blood from P. falciparum-infected mice were stained with TER-119-Phycoerythrine (marker of murine erythrocytes) and SYTO-16 (nucleic acid dye) and then analyzed by flow cytometry (FACSCalibur, BD).

[C-]#[N+][C@]1(C)CC[C@H]2[C@@H]([C@@H](C(C)C)CC[C@]2(C)[N+]#[C-])[C@H]1O [MED6-189]
IC50 ([1]; Plasmodium falciparum, HB3, 72 h): 23 ± 2 nM
IC50 [1]: 22.8 nM
IC50 ([2]; 3D7 Parental, drug-sensitive parental line): 15 nM
IC50 ([2]; Plasmodium falciparum, 3D7, 3D7 Clone (drug sensitive)): 13 nM
IC50 ([2]; Plasmodium falciparum, 3D7, 3D7 Parental, drug-sensitive parental line): ~14 nM
IC50 ([3]; 3D7 Clone-Kalihinol Treated): 58.1 nM
IC50 ([3]; Plasmodium falciparum, 3D7, 3D7 Clone-Kalihinol Treated): ~60 nM
Exponential killing rate k = (1/t)* log10(N0/Nt) (P. falciparum cultures; at IC80, 48 HPS): 0.008801
Exponential killing rate k = (1/t)* log10(N0/Nt) (P. falciparum cultures; at IC80, 72 HPS): 0.007941
Exponential killing rate k = (1/t)* log10(N0/Nt) (P. falciparum cultures; at IC80, 100 HPS): 0.0183
reduction in parasitemia in the peripheral blood [4]: > 90%
